The numbers were not newly measured in patent US10696827B2, “Polyolefin composition comprising an antimicrobial additive” (SABIC GLOBAL TECHNOLOGIES B.V., priority 2015, dated 2020), which cites them from elsewhere.

The data set relates to Staphylococcus aureus. To be noted: >0.4% of additive in LDPE catheter, rabbits, subcutaneous.

For the compound `CCCCCCc1ccc(O)cc1O` [4-n-hexyl resorcinol], the infection result is on record as “little to no infection”.
